± gives the expanded uncertainty stated by the source.
Assay: xn = mol fraction of the nth substance listed
Details: Liquid, Pycnometric method

Cn1ccnc1 [1-methylimidazole] + O=C=O
Details | mass density [kg/m3]
322.7 K, 12990 kPa, x1 = 0.0487 | 807 ± 4
322.7 K, 13020 kPa, x1 = 0.0247 | 755 ± 4
322.7 K, 13030 kPa, x1 = 0.0102 | 707 ± 4
322.7 K, 13120 kPa, x1 = 0.0487 | 809 ± 4
322.7 K, 13250 kPa, x1 = 0.0487 | 812 ± 4
322.7 K, 13310 kPa, x1 = 0.0247 | 762 ± 4
322.7 K, 13480 kPa, x1 = 0.0102 | 723 ± 4
322.7 K, 13500 kPa, x1 = 0.0487 | 817 ± 4
322.7 K, 13620 kPa, x1 = 0.0247 | 770 ± 4
322.7 K, 13790 kPa, x1 = 0.0487 | 822 ± 4
322.7 K, 13950 kPa, x1 = 0.0247 | 777 ± 4
322.7 K, 14040 kPa, x1 = 0.0102 | 740 ± 4
322.7 K, 14080 kPa, x1 = 0.0487 | 827 ± 4
322.7 K, 14340 kPa, x1 = 0.0247 | 786 ± 4
322.7 K, 14370 kPa, x1 = 0.0487 | 832 ± 4
322.7 K, 14510 kPa, x1 = 0.0102 | 753 ± 4
322.7 K, 14640 kPa, x1 = 0.1024 | 909 ± 4
322.7 K, 14710 kPa, x1 = 0.0487 | 838 ± 4
322.7 K, 14750 kPa, x1 = 0.0247 | 794 ± 4
322.7 K, 14780 kPa, x1 = 0.1024 | 911 ± 4
322.7 K, 14920 kPa, x1 = 0.1024 | 912 ± 4
322.7 K, 15030 kPa, x1 = 0.1024 | 913 ± 4
322.7 K, 15070 kPa, x1 = 0.0487 | 843 ± 4
322.7 K, 15180 kPa, x1 = 0.1024 | 915 ± 4
322.7 K, 15200 kPa, x1 = 0.0247 | 802 ± 4
322.7 K, 15260 kPa, x1 = 0.0102 | 771 ± 4
322.7 K, 15290 kPa, x1 = 0.1024 | 916 ± 4
322.7 K, 15430 kPa, x1 = 0.0487 | 849 ± 4
322.7 K, 15470 kPa, x1 = 0.1024 | 917 ± 4
322.7 K, 15590 kPa, x1 = 0.1024 | 918 ± 4
322.7 K, 15690 kPa, x1 = 0.0247 | 810 ± 4
322.7 K, 15860 kPa, x1 = 0.0487 | 855 ± 4
322.7 K, 15900 kPa, x1 = 0.1024 | 922 ± 4
322.7 K, 16070 kPa, x1 = 0.0247 | 816 ± 4
322.7 K, 16210 kPa, x1 = 0.0102 | 790 ± 4
322.7 K, 16230 kPa, x1 = 0.1024 | 924 ± 4
322.7 K, 16280 kPa, x1 = 0.0487 | 860 ± 4
322.7 K, 16530 kPa, x1 = 0.1024 | 927 ± 4
322.7 K, 16540 kPa, x1 = 0.0247 | 824 ± 4
322.7 K, 16700 kPa, x1 = 0.0487 | 866 ± 4
322.7 K, 16830 kPa, x1 = 0.0247 | 828 ± 4
322.7 K, 16880 kPa, x1 = 0.1024 | 929 ± 4
322.7 K, 17020 kPa, x1 = 0.0102 | 805 ± 4
322.7 K, 17160 kPa, x1 = 0.0247 | 833 ± 4
322.7 K, 17180 kPa, x1 = 0.1024 | 933 ± 4
322.7 K, 17340 kPa, x1 = 0.1024 | 934 ± 4
322.7 K, 17490 kPa, x1 = 0.0247 | 837 ± 4
322.7 K, 17570 kPa, x1 = 0.1024 | 936 ± 4
322.7 K, 17750 kPa, x1 = 0.1024 | 937 ± 4
322.7 K, 17830 kPa, x1 = 0.0247 | 842 ± 4
322.7 K, 17920 kPa, x1 = 0.1024 | 939 ± 4
322.7 K, 17960 kPa, x1 = 0.0102 | 821 ± 4
322.7 K, 18120 kPa, x1 = 0.1024 | 940 ± 4
322.7 K, 18150 kPa, x1 = 0.0102 | 824 ± 4
322.7 K, 18330 kPa, x1 = 0.1024 | 942 ± 4
322.7 K, 18570 kPa, x1 = 0.1024 | 943 ± 4
322.7 K, 18770 kPa, x1 = 0.1024 | 945 ± 4
322.7 K, 18990 kPa, x1 = 0.1024 | 946 ± 4
327.6 K, 11610 kPa, x1 = 0.0102 | 548 ± 4
327.6 K, 11720 kPa, x1 = 0.0102 | 558 ± 4
327.6 K, 11840 kPa, x1 = 0.0102 | 568 ± 4
327.6 K, 11970 kPa, x1 = 0.0102 | 578 ± 4
327.6 K, 12110 kPa, x1 = 0.0102 | 589 ± 4
327.6 K, 12270 kPa, x1 = 0.0102 | 600 ± 4
327.6 K, 12440 kPa, x1 = 0.0102 | 612 ± 4
327.6 K, 12510 kPa, x1 = 0.0247 | 682 ± 4
327.6 K, 12630 kPa, x1 = 0.0102 | 624 ± 4
327.6 K, 12630 kPa, x1 = 0.0247 | 687 ± 4
327.6 K, 12720 kPa, x1 = 0.0247 | 691 ± 4
327.6 K, 12850 kPa, x1 = 0.0102 | 636 ± 4
327.6 K, 12890 kPa, x1 = 0.0247 | 698 ± 4
327.6 K, 13060 kPa, x1 = 0.0247 | 704 ± 4
327.6 K, 13110 kPa, x1 = 0.0102 | 649 ± 4
327.6 K, 13250 kPa, x1 = 0.0247 | 711 ± 4
327.6 K, 13400 kPa, x1 = 0.0102 | 663 ± 4
327.6 K, 13460 kPa, x1 = 0.0247 | 718 ± 4
327.6 K, 13670 kPa, x1 = 0.0247 | 724 ± 4
327.6 K, 13730 kPa, x1 = 0.0102 | 677 ± 4
327.6 K, 13900 kPa, x1 = 0.0247 | 731 ± 4
327.6 K, 14110 kPa, x1 = 0.0102 | 692 ± 4
327.6 K, 14140 kPa, x1 = 0.0247 | 738 ± 4
327.6 K, 14190 kPa, x1 = 0.0487 | 791 ± 4
327.6 K, 14340 kPa, x1 = 0.0487 | 795 ± 4
327.6 K, 14410 kPa, x1 = 0.0247 | 745 ± 4
327.6 K, 14560 kPa, x1 = 0.0102 | 707 ± 4
327.6 K, 14570 kPa, x1 = 0.0487 | 799 ± 4
327.6 K, 14710 kPa, x1 = 0.0247 | 753 ± 4
327.6 K, 14830 kPa, x1 = 0.0487 | 804 ± 4
327.6 K, 15010 kPa, x1 = 0.0247 | 760 ± 4
327.6 K, 15080 kPa, x1 = 0.0487 | 809 ± 4
327.6 K, 15100 kPa, x1 = 0.0102 | 723 ± 4
327.6 K, 15270 kPa, x1 = 0.0247 | 766 ± 4
327.6 K, 15370 kPa, x1 = 0.0487 | 814 ± 4
327.6 K, 15550 kPa, x1 = 0.0247 | 772 ± 4
327.6 K, 15660 kPa, x1 = 0.0487 | 819 ± 4
327.6 K, 15730 kPa, x1 = 0.0102 | 740 ± 4
327.6 K, 15940 kPa, x1 = 0.0487 | 825 ± 4
327.6 K, 15970 kPa, x1 = 0.0247 | 779 ± 4
327.6 K, 16080 kPa, x1 = 0.1024 | 899 ± 4
327.6 K, 16170 kPa, x1 = 0.1024 | 900 ± 4
327.6 K, 16280 kPa, x1 = 0.0487 | 829 ± 4
327.6 K, 16300 kPa, x1 = 0.1024 | 901 ± 4
327.6 K, 16400 kPa, x1 = 0.0247 | 787 ± 4
327.6 K, 16420 kPa, x1 = 0.1024 | 903 ± 4
327.6 K, 16460 kPa, x1 = 0.0102 | 758 ± 4
327.6 K, 16540 kPa, x1 = 0.1024 | 904 ± 4
327.6 K, 16640 kPa, x1 = 0.0247 | 791 ± 4
327.6 K, 16650 kPa, x1 = 0.0487 | 836 ± 4
327.6 K, 16650 kPa, x1 = 0.1024 | 905 ± 4
327.6 K, 16780 kPa, x1 = 0.1024 | 906 ± 4
327.6 K, 16930 kPa, x1 = 0.1024 | 908 ± 4
327.6 K, 16980 kPa, x1 = 0.0247 | 798 ± 4
327.6 K, 17060 kPa, x1 = 0.1024 | 909 ± 4
327.6 K, 17130 kPa, x1 = 0.0102 | 771 ± 4
327.6 K, 17210 kPa, x1 = 0.0247 | 802 ± 4
327.6 K, 17210 kPa, x1 = 0.1024 | 911 ± 4
327.6 K, 17330 kPa, x1 = 0.0487 | 846 ± 4
327.6 K, 17390 kPa, x1 = 0.1024 | 912 ± 4
327.6 K, 17490 kPa, x1 = 0.1024 | 913 ± 4
327.6 K, 17600 kPa, x1 = 0.0247 | 808 ± 4
327.6 K, 17620 kPa, x1 = 0.1024 | 914 ± 4
327.6 K, 17740 kPa, x1 = 0.0487 | 851 ± 4
327.6 K, 17750 kPa, x1 = 0.1024 | 916 ± 4
327.6 K, 17850 kPa, x1 = 0.0102 | 786 ± 4
327.6 K, 17870 kPa, x1 = 0.0247 | 813 ± 4
327.6 K, 17960 kPa, x1 = 0.1024 | 918 ± 4
327.6 K, 18080 kPa, x1 = 0.1024 | 919 ± 4
327.6 K, 18200 kPa, x1 = 0.0487 | 857 ± 4
327.6 K, 18230 kPa, x1 = 0.1024 | 920 ± 4
327.6 K, 18380 kPa, x1 = 0.0102 | 795 ± 4
327.6 K, 18380 kPa, x1 = 0.1024 | 922 ± 4
327.6 K, 18580 kPa, x1 = 0.1024 | 923 ± 4
327.6 K, 18690 kPa, x1 = 0.0487 | 863 ± 4
327.6 K, 18770 kPa, x1 = 0.1024 | 924 ± 4
327.6 K, 18840 kPa, x1 = 0.0102 | 802 ± 4
327.6 K, 18940 kPa, x1 = 0.1024 | 925 ± 4
332.4 K, 12410 kPa, x1 = 0.0102 | 539 ± 4
332.4 K, 12550 kPa, x1 = 0.0102 | 548 ± 4
332.4 K, 12670 kPa, x1 = 0.0102 | 558 ± 4
332.4 K, 12820 kPa, x1 = 0.0102 | 568 ± 4
332.4 K, 12980 kPa, x1 = 0.0102 | 578 ± 4
332.4 K, 13160 kPa, x1 = 0.0102 | 589 ± 4

Reference: the NIST ThermoML archive (doi:10.1021/je900387e)
